Data as given in patent publication US6579892B1, “Triazole compounds with dopamine-D3-receptor affinity” (Abbott Laboratories, priority 1999, dated 2003).
Structures can show the parent of a compound that is named as a salt.

How the values were obtained:
[1] = target: T1, Cloned human D3-receptor (Homo sapiens, UniProt P35462); experiment: D3 binding test (125iodosulpiride displacement); details: negative logarithm of Ki (D3) [M]
T1 construct: host or cells: CCL 1,3 mouse fibroblasts
Protocol: Cloned human D3-receptor-expressing CCL 1,3 mouse fibroblasts, obtainable from Res. Biochemicals Internat. One Strathmore Rd., Natick, Mass. 01760-2418 USA, were used for the binding studies.
The D3-expressing cells were multiplied in RPMI-1640 containing 10% fetal calf serum (GIBCO No. 041-32400 N); 100 U of penicillin/ml and 0.2% streptomycin (GIBO BRL, Gaithersburg, Md., USA). After 48 h, the cells were washed with PBS and incubated for 5 min with 0.05% trypsin-containing PBS. After that, the mixture was neutralized with medium and the cells were collected by centrifuging at 300 g. In order to lyse the cells, the pellet was washed briefly with lysis buffer (5 mM Tris-HCl, pH 7.4, containing 10% glycerol) and after that incubated, at 4° C. for 30 min, at a concentration of 10^7 cells/ml of lysis buffer. The cells were centrifuged at 200 g for 10 min and the pellet was stored in liquid nitrogen.
For the D3-receptor binding test, the membranes were suspended in incubation buffer (50 mM Tris-HCl, pH 7.4, containing 120 mM NaCl, 5 mM KCl, 2 mM CaCl2, 2 mM MgCl2, 10 μM quinolinol, 0.1% ascorbic acid and 0.1% BSA), at a concentration of approx. 10^6 cells/250 μl of test mixture, and incubated at 30° C. […] 0.1 nM ^125iodosulpiride in the presence and absence of the test substance. The nonspecific binding was determined using 10^−6 M spiperone.
After 60 min, the free radioligand and the bound radioligand were separated by filtering through GF/B glass fiber filters (Whatman, England) on a Skatron cell harvester (Skatron, Lier, Norway), and the filters were washed with ice-cold Tris-HCl buffer, pH-7.4. The radioactivity which had collected on the filters was quantified using a Packard 2200 CA liquid scintillation counter.
The Ki values were determined by means of nonlinear regression analysis using the LIGAND program.

[2] = target: T2, human dopamine D2A receptors (Homo sapiens, UniProt P14416); experiment: D2 binding test (low affinity state, 125I-spiperone); details: ratio Ki(D2)/Ki(D3)
T2 construct: expressed in transfected cells; host or cells: HEK-293
Protocol: All the media contained 100 units of penicillin […] and 100 μg/ml of streptomycin/ml. The cells were maintained at 37° C. in a moist atmosphere containing 5% CO2.
The cells were prepared for the binding studies by trypsinizing them (0.05% solution of trypsin) at room temperature for 3-5 minutes. After that, the cells were centrifuged at 250 g for 10 minutes and treated with lysis buffer (5 mM Tris-HCl, 10% glycerol, pH 7.4) at 4° C. for 30 minutes. After centrifuging at 250 g for 10 minutes, the residue was stored at −20° C. until used.
Low affinity state dopamine D2 receptor using ^125I-spiperone (81 TBq/mmol, Du Pont de Nemours, Dreieich)
The test mixtures (1 ml) consisted of 1×10^5 cells in incubation buffer (50 mM Tris, 120 mM NaCl, 5 mM KCl, 2 mM MgCl2 and 2 mM CaCl2, pH 7.4 with HCl) and […] ^125I-spiperone (total binding) or additionally 1 μM haloperidol (nonspecific binding) or test substance.
After the test mixtures had been incubated at 25° C. for 60 minutes, they were filtered through GM/B glass filters (Whatman, England) on a Skatron cell harvester (from Zinsser, Frankfurt), and the filters were washed with ice-cold 50 mM Tris-HCl buffer, pH 7.4. The radioactivity which had collected on the filters was quantified using a Packard 2200 CA liquid scintillation counter.
The results were evaluated as described in a).
The Ki values were determined by way of nonlinear regression analysis using the LIGAND program or by converting the IC50 values using the Cheng and Prusoff formula.

T2 sequence (P14416 whole entry): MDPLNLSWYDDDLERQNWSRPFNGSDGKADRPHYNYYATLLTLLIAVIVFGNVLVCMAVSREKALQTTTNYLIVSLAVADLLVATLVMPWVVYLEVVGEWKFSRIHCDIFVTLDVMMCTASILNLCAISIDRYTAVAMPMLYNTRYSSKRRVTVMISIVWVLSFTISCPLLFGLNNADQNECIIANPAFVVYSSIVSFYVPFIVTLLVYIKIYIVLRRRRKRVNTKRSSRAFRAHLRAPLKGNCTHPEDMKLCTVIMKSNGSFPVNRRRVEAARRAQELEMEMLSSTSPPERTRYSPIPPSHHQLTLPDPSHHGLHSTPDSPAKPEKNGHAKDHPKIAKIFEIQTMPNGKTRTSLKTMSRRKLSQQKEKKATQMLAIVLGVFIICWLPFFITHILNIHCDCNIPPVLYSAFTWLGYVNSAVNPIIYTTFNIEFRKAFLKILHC
T1 sequence (P35462 whole entry): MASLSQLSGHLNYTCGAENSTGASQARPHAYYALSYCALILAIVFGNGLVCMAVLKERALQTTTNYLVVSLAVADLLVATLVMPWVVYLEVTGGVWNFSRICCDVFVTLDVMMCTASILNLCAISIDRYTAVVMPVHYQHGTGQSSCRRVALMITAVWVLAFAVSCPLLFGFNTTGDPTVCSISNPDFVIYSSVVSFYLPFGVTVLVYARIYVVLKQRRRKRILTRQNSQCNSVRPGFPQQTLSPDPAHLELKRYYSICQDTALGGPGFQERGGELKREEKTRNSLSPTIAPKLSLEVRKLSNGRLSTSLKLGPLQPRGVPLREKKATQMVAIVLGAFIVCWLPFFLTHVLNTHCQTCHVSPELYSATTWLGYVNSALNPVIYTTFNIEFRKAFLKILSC

| melting point | Molecule | Selectivity (Ki(D2)/Ki(D3)) [2] | other results |
| --- | --- | --- | --- |
| 92 to 95 °C | COc1ccc2c(c1)CC(CCCNCCCSc1nnc(-c3ccccc3)n1C)CC2 (stereo not drawn) (as salt: HCl) [Example 18, 3-[3-(N-(7-Methoxy-1,2,3,4-tetrahydronaphth-2-yl)propylamino)propylmercapto]-4-methyl-5-phenyl-1,2,4(4H)-triazole] |  |  |
| 135 to 139 °C | CCOC(=O)c1nnc(SCCCNC2Cc3ccccc3C2)n1C (as salt: HCl) [Example 25, Ethyl-5-{[3-(indan-2-ylamino)propyl]mercapto}-4-methyl-1,2,4(4H)-triazole-3-carboxylate] |  |  |
| 201 to 202 °C | COc1cc2c(cc1OC)C(NCCCSc1nnc(-c3ccccc3)n1C)CC2.Cl (stereo not drawn) |  |  |
| 88 °C (dec.) | Cl.Cn1c(SCCCNCC2CCc3cc(Br)ccc3C2)nnc1-c1ccccc1 (stereo not drawn) |  |  |
|  | 3-[3-(6-Methyl-1,2,3,4-tetrahydronaphth-2-ylmethylamino)propylmercapto]-4-methyl-5-phenyl-1,2,4(4H)-triazole [Example 14] | 46 | pKi (D3) [1]: 7.82 |
| 69 to 73 °C | Cc1ccc2c(c1)CCC(NCCCSc1nnc(-c3ccccc3)n1C)C2 (stereo not drawn) [Example 4, 3-[3-(6-Methyl-1,2,3,4-tetrahydronaphth-2-ylamino)propylmercapto]-4-methyl-5-phenyl-1,2,4(4H)-triazole] |  |  |
| 123 °C | Cc1ncsc1-c1nnc(SCCCNCCCC2CCc3ccc(F)cc32)n1C.Cl (stereo not drawn) |  |  |
|  | CCCN(CCCSc1nnc(-c2scnc2C)n1C)C1CCc2ccc(OC)cc2C1 (stereo not drawn) [Example 26, 3-[3-(N-(7-Methoxy-1,2,3,4-tetrahydronaphth-2-yl)-propylamino)propylmercapto]-4-methyl-5-(4-methyl-1,3-thiazol-5-yl)-1,2,4(4H)-triazole] | 157 | Ki ([1]; read-out: pKi (D3) (converted)): 8.71e-09 M |
|  | 3-[3-(N-(Indan-2-yl)propylamino)propylmercapto]-4-methyl-5-phenyl-1,2,4(4H)-triazole Fumarate [Example 1] | 71 | pKi (D3) [1]: 9.05 |
